Results as given in the kinase profiling compilation of Christmann-Franck et al. (2016).

Key:
Assay in all cases: radiometric filter-binding kinase assay, Kinase HotSpot
Details in all cases: compound 0.5 µM; ATP 10 µM
SGK2 (human) = SGK2 (human) (UniProt Q9HBY8)
MYLK2 (human) = MYLK2 (human) (UniProt Q9H1R3)
CAMKK1 (human) = CAMKK1 (human) (UniProt Q8N5S9)
MAPK3 (human) = MAPK3 (human) (UniProt P27361)
DAPK2 (human) = DAPK2 (human) (UniProt Q9UIK4)
CLK4 (human) = CLK4 (human) (UniProt Q9HAZ1)
MARK1 (human) = MARK1 (human) (UniProt Q9P0L2)
NTRK2 (human) = NTRK2 (human) (UniProt Q16620)
FGR (human) = FGR (human) (UniProt P09769)
DYRK4 (human) = DYRK4 (human) (UniProt Q9NR20)
PKN2 (human) = PKN2 (human) (UniProt Q16513)
PRKX (human) = PRKX (human) (UniProt P51817)
PNCK (human) = PNCK (human) (UniProt Q6P2M8)
EPHA1 (human) = EPHA1 (human) (UniProt P21709)
PRKACA (human) = PRKACA (human) (UniProt P17612)
PASK (human) = PASK (human) (UniProt Q96RG2)
DSTYK (human) = DSTYK (human) (UniProt Q6XUX3)
LRRK2 (human) = LRRK2 (human) (UniProt Q5S007)
LRRK2 (human), sequence (Q5S007 whole entry, looked up): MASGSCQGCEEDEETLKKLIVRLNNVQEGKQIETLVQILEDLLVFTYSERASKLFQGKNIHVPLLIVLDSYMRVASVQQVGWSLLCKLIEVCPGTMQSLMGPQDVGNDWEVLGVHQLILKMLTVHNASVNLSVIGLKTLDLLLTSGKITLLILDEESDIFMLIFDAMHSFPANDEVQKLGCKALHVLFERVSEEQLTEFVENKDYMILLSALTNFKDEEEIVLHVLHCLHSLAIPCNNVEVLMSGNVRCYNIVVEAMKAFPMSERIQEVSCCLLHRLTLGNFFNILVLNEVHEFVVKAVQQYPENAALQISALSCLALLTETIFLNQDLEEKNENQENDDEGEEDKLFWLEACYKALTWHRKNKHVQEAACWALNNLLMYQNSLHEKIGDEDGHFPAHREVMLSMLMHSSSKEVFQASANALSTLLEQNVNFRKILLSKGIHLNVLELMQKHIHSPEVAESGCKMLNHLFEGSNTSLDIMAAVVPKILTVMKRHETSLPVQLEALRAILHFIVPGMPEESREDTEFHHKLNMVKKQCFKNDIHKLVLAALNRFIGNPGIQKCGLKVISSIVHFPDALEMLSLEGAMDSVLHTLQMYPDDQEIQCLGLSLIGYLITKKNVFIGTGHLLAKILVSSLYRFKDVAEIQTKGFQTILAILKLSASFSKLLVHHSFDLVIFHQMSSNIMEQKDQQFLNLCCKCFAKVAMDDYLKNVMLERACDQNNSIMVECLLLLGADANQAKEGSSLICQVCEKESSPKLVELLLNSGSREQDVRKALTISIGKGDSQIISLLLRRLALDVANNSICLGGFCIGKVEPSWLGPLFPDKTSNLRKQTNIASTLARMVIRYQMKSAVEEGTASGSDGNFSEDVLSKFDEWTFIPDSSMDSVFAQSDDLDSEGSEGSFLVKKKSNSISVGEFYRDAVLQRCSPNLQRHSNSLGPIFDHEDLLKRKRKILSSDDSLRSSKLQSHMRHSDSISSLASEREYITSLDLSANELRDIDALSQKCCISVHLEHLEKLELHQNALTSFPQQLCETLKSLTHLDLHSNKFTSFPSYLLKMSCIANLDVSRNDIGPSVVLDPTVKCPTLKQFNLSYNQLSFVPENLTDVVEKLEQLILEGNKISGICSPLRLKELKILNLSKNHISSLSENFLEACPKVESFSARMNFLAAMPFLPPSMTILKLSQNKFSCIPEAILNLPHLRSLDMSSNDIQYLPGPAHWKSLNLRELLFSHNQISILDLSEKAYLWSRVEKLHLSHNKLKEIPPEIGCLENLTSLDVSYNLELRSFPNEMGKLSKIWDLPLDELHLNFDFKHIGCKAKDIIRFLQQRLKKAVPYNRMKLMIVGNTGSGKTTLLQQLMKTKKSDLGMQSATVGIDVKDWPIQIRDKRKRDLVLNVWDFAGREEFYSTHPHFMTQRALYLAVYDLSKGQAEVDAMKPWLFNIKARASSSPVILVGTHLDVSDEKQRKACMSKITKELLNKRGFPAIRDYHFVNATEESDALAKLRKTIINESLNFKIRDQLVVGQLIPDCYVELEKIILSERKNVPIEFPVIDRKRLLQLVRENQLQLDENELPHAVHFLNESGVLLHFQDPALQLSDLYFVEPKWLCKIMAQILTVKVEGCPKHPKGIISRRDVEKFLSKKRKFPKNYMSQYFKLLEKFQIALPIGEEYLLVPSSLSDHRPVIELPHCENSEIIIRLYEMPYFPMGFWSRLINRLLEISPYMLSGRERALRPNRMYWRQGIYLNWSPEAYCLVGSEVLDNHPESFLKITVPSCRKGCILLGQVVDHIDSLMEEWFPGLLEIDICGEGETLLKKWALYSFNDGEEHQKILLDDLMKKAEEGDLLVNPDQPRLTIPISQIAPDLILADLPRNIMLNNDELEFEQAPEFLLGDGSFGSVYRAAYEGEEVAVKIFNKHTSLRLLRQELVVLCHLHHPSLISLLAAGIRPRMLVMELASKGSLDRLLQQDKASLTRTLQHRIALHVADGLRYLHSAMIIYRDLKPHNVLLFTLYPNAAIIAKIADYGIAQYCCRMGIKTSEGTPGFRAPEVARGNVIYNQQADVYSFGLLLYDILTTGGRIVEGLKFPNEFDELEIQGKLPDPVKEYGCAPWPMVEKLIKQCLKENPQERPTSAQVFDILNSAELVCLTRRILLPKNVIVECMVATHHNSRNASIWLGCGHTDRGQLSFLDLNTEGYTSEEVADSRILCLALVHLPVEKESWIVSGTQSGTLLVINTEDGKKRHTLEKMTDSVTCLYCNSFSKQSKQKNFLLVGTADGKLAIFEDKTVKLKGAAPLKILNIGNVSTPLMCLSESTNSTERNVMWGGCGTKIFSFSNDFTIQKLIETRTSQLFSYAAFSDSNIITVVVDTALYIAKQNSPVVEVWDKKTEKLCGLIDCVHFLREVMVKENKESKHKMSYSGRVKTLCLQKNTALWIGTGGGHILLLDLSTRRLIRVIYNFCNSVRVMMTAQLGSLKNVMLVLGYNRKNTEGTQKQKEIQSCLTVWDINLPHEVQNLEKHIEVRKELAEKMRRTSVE

RPS6KA2 KD1 KD2 (human) = RPS6KA2 KD1 KD2 (human) (UniProt Q15349)
ALK (human) = ALK (human) (UniProt Q9UM73)
TAOK3 (human) = TAOK3 (human) (UniProt Q9H2K8)
FRK (human) = FRK (human) (UniProt P42685)
NEK1 (human) = NEK1 (human) (UniProt Q96PY6)
MAPK14 (human) = MAPK14 (human) (UniProt Q16539)
GSK3A (human) = GSK3A (human) (UniProt P49840)
WNK3 (human) = WNK3 (human) (UniProt Q9BYP7)
WNK3 (human), sequence (Q9BYP7 whole entry, looked up): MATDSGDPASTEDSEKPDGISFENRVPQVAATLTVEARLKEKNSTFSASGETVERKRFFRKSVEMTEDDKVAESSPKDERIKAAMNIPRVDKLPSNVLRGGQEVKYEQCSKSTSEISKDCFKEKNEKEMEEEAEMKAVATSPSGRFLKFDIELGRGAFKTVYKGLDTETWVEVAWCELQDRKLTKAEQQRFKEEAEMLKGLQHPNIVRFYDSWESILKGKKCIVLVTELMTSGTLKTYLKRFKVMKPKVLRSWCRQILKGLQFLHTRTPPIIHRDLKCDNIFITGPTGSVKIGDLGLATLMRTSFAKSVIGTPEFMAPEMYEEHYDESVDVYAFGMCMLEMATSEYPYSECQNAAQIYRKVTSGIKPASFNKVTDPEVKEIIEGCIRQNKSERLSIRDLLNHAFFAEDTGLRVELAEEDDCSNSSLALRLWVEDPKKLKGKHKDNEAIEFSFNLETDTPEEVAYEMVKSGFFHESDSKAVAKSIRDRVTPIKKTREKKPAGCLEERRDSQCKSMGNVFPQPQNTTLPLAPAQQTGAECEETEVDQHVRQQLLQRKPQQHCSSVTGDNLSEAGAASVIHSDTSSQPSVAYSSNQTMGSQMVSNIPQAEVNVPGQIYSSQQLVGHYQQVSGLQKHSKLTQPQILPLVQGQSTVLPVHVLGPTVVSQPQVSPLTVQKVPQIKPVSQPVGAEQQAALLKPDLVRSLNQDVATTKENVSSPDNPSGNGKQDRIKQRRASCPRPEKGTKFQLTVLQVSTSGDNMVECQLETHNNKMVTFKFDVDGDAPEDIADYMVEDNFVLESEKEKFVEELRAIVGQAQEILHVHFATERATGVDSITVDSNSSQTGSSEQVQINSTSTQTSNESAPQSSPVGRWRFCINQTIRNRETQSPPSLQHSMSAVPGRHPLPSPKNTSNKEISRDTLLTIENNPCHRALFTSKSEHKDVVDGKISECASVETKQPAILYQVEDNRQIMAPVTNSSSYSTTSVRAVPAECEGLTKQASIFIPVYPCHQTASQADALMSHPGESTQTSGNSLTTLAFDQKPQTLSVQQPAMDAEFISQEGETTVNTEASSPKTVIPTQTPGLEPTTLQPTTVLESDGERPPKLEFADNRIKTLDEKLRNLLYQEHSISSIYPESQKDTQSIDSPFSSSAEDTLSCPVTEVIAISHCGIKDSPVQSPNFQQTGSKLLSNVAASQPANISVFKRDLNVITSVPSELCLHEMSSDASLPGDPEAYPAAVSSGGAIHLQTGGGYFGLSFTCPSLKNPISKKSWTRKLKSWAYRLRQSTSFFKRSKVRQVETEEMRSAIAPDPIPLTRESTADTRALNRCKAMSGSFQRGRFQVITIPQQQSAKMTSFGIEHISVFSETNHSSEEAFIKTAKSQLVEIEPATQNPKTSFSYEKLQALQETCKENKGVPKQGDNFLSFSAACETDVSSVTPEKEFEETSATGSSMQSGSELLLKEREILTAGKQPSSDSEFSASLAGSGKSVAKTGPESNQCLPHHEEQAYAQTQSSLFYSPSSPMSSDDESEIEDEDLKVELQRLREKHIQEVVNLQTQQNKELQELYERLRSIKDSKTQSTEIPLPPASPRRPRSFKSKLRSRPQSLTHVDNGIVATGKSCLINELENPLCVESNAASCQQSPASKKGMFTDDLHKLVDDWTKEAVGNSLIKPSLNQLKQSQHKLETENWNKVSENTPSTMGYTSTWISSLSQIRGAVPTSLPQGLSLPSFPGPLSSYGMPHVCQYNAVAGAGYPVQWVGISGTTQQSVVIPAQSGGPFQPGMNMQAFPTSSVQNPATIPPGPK

GRK5 (human) = GRK5 (human) (UniProt P34947)
PRKCI (human) = PRKCI (human) (UniProt P41743)
FLT3 (human) = FLT3 (human) (UniProt P36888)
PRKCE (human) = PRKCE (human) (UniProt Q02156)
FGFR4 (human) = FGFR4 (human) (UniProt P22455)
CDK1 CCNA2 (human) = CDK1 CCNA2 (human) (UniProt P06493+P20248)
CAMK4 (human) = CAMK4 (human) (UniProt Q16566)
CDK5 CDK5R1 p25 (human) = CDK5 CDK5R1 p25 (human) (UniProt Q00535+Q15078)
MELK (human) = MELK (human) (UniProt Q14680)
CHEK2 (human) = CHEK2 (human) (UniProt O96017)
PRKCH (human) = PRKCH (human) (UniProt P24723)
HIPK3 (human) = HIPK3 (human) (UniProt Q9H422)
MAPKAPK3 (human) = MAPKAPK3 (human) (UniProt Q16644)
PAK2 (human) = PAK2 (human) (UniProt Q13177)
FGFR1 (human) = FGFR1 (human) (UniProt P11362)
CSNK1G2 (human) = CSNK1G2 (human) (UniProt P78368)

MYLK2 (human), sequence (Q9H1R3 whole entry, looked up): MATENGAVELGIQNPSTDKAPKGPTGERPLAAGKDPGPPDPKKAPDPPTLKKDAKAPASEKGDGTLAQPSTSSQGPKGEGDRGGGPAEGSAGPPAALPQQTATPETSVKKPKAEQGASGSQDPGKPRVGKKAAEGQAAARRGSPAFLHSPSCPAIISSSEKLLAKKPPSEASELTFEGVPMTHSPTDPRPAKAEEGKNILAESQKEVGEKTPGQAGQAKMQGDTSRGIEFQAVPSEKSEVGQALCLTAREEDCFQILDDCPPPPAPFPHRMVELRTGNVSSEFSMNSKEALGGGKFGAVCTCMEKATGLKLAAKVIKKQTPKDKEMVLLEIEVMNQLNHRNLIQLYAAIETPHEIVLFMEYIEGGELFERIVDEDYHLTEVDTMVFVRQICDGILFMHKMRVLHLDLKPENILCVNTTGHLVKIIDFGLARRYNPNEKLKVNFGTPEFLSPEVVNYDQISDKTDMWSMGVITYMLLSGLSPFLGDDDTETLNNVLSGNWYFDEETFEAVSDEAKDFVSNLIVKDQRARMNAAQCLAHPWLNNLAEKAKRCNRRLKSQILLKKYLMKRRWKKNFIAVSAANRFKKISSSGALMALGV

Structure (SMILES): Nc1nc(Nc2ccc(S(N)(=O)=O)cc2)nn1C(=O)c1c(F)cccc1F
- residual activity (SGK2 (human)): 106%
- residual activity (MYLK2 (human)): 96.1%
- residual activity (CAMKK1 (human)): 86.4%
- residual activity (MAPK3 (human)): 108%
- residual activity (DAPK2 (human)): 107%
- residual activity (CLK4 (human)): 41.6%
- residual activity (MARK1 (human)): 64.1%
- residual activity (NTRK2 (human)): 42.8%
- residual activity (FGR (human)): 63.5%
- residual activity (DYRK4 (human)): 105%
- residual activity (PKN2 (human)): 85.6%
- residual activity (PRKX (human)): 89%
- residual activity (PNCK (human)): 107%
- residual activity (EPHA1 (human)): 73.7%
- residual activity (PRKACA (human)): 98.8%
- residual activity (PASK (human)): 91.1%
- residual activity (DSTYK (human)): 86.2%
- residual activity (LRRK2 (human)): 48.3%
- residual activity (RPS6KA2 KD1 KD2 (human)): 42.2%
- residual activity (ALK (human)): 90.1%
- residual activity (TAOK3 (human)): 39.9%
- residual activity (FRK (human)): 90.9%
- residual activity (NEK1 (human)): 76.3%
- residual activity (MAPK14 (human)): 97.8%
- residual activity (GSK3A (human)): 9.59%
- residual activity (WNK3 (human)): 98.3%
- residual activity (GRK5 (human)): 85.9%
- residual activity (PRKCI (human)): 87.6%
- residual activity (FLT3 (human)): 44.3%
- residual activity (PRKCE (human)): 97.2%
- residual activity (FGFR4 (human)): 90.3%
- residual activity (CDK1 CCNA2 (human)): 10.3%
- residual activity (CAMK4 (human)): 96.8%
- residual activity (CDK5 CDK5R1 p25 (human)): 2.54%
- residual activity (MELK (human)): 87.2%
- residual activity (CHEK2 (human)): 63.6%
- residual activity (PRKCH (human)): 100%
- residual activity (HIPK3 (human)): 91.2%
- residual activity (MAPKAPK3 (human)): 98%

Structure (SMILES): CCCNC(=O)Nc1ccc(Oc2ncnc3cc(OC)c(OC)cc23)cc1Cl
- residual activity (SGK2 (human)): 97.1%
- residual activity (MYLK2 (human)): 99.9%
- residual activity (CAMKK1 (human)): 93.1%
- residual activity (MAPK3 (human)): 105%
- residual activity (DAPK2 (human)): 108%
- residual activity (CLK4 (human)): 94.2%
- residual activity (MARK1 (human)): 97.6%
- residual activity (NTRK2 (human)): 102%
- residual activity (FGR (human)): 70.2%
- residual activity (DYRK4 (human)): 106%
- residual activity (PKN2 (human)): 99.2%
- residual activity (PRKX (human)): 100%
- residual activity (PNCK (human)): 95.4%
- residual activity (EPHA1 (human)): 96.9%
- residual activity (PRKACA (human)): 99.7%
- residual activity (PASK (human)): 87.7%
- residual activity (DSTYK (human)): 88.6%
- residual activity (LRRK2 (human)): 94.1%
- residual activity (RPS6KA2 KD1 KD2 (human)): 95.7%
- residual activity (TAOK3 (human)): 95.9%
- residual activity (FRK (human)): 87.2%
- residual activity (NEK1 (human)): 91.8%
- residual activity (MAPK14 (human)): 122%
- residual activity (PAK2 (human)): 81.4%
- residual activity (GSK3A (human)): 98.8%
- residual activity (WNK3 (human)): 93.8%
- residual activity (GRK5 (human)): 105%
- residual activity (PRKCI (human)): 93%
- residual activity (FLT3 (human)): 82.1%
- residual activity (PRKCE (human)): 96.8%
- residual activity (FGFR4 (human)): 73.9%
- residual activity (FGFR1 (human)): 75.4%
- residual activity (CDK1 CCNA2 (human)): 97.7%
- residual activity (CSNK1G2 (human)): 84.8%
- residual activity (CAMK4 (human)): 99.1%
- residual activity (CDK5 CDK5R1 p25 (human)): 95.7%
- residual activity (MELK (human)): 86.8%
- residual activity (CHEK2 (human)): 80%
- residual activity (PRKCH (human)): 101%
- residual activity (HIPK3 (human)): 96.2%
- residual activity (MAPKAPK3 (human)): 95.8%

Structure (SMILES): O=C1Nc2ccccc2/C1=C\c1c(Cl)[nH]c2ccccc12
- residual activity (SGK2 (human)): 103%
- residual activity (MYLK2 (human)): 94.6%
- residual activity (CAMKK1 (human)): 116%
- residual activity (MAPK3 (human)): 109%
- residual activity (DAPK2 (human)): 96.8%
- residual activity (CLK4 (human)): 105%
- residual activity (MARK1 (human)): 96%
- residual activity (NTRK2 (human)): 95%
- residual activity (FGR (human)): 90.5%
- residual activity (DYRK4 (human)): 97.4%
- residual activity (PKN2 (human)): 96.3%
- residual activity (PRKX (human)): 106%
- residual activity (PNCK (human)): 92.9%
- residual activity (EPHA1 (human)): 98.5%
- residual activity (PRKACA (human)): 102%
- residual activity (PASK (human)): 89.3%
- residual activity (DSTYK (human)): 95.7%
- residual activity (LRRK2 (human)): 102%
- residual activity (RPS6KA2 KD1 KD2 (human)): 81.1%
- residual activity (ALK (human)): 97.9%
- residual activity (TAOK3 (human)): 93.9%
- residual activity (FRK (human)): 100%
- residual activity (NEK1 (human)): 96.7%
- residual activity (MAPK14 (human)): 101%
- residual activity (GSK3A (human)): 99.3%
- residual activity (WNK3 (human)): 101%
- residual activity (GRK5 (human)): 109%
- residual activity (PRKCI (human)): 99.2%
- residual activity (FLT3 (human)): 80.5%
- residual activity (PRKCE (human)): 95.1%
- residual activity (FGFR4 (human)): 96.9%
- residual activity (FGFR1 (human)): 92%
- residual activity (CDK1 CCNA2 (human)): 103%
- residual activity (CSNK1G2 (human)): 96.3%
- residual activity (CAMK4 (human)): 102%
- residual activity (CDK5 CDK5R1 p25 (human)): 86%
- residual activity (MELK (human)): 85.7%
- residual activity (CHEK2 (human)): 99.4%
- residual activity (PRKCH (human)): 73.6%
- residual activity (HIPK3 (human)): 100%
- residual activity (MAPKAPK3 (human)): 91.3%
